# Results: patent publication US4341784A, “Naphthyridine derivatives” (priority 1979, dated 1982)
# Entries after “also recorded” stand apart in the source; their conditions may differ.
# Legend:
# [1] = tested on: Streptococcus pyogenes 65-A; experiment: In vivo efficacy against systemic infections in mice (intraperitoneal infection); design: species or system male mice (ddY); settings: 168 h, po, twice, about 5 minutes and 6 hours after intraperitoneal infection, observed 7 days
# Method: (§1) Each of the solutions was orally administered to mice infected with each of test organisms under the conditions described below, and the medium effective doses (ED50) obtained are shown in Table II. Male mice (ddY) weighing about 20 g (2) Streptococcus pyogenes 65-A: Intraperitoneal infection with about 3×10^7 cells per mouse suspended in barin heart infusion broth. Twice, about 5 minutes and 6 hours after infection. |Streptococcus pyogenes 65-A |Escherichia coli P-5101 for 7 days | The numerals in the table show ED50 (mg/kg). ED50 values were | calculated in accordance with the BehrensKaerber method (Arch. Exp. Path. | Pharm., 162, 480 (1931)). | po: oral administration.
# [2] = tested on: Pseudomonas aeruginosa No. 12; experiment: as above; design: species or system male mice (ddY); settings: NO.12, 168 h, po, twice, about 5 minutes and 6 hours after intraperitoneal infection, observed 7 days
# Method: as §1, with “(4) Pseudomonas aeruginosa No. 12:” for “(2) Streptococcus pyogenes 65-A:”, “5×10^3” for “3×10^7”, “trypto-soy broth with 4% mucin.” for “barin heart infusion broth.”, “infection.” for “infection. |Streptococcus pyogenes 65-A”, “days |Pseudomonas aeruginosa No. 12” for “days”
# [3] = in vivo; settings: for LD50 at 168 h: mouse, in vivo, po; for acute oral toxicity (in words): hydrochloride
# Method: A solution containing each of Compounds 1 and 2 of this invention in various concentrations was orally given to male mice (ddY) at a dose of 0.1 ml per 10 g of body weight. The number of dead mice was counted after 7 days, and the value of median lethal dose (LD50, mg/kg) was calculated in accordance with the Behrens-Kaerber method.
# [4] = tested on: Gram-positive and Gram-negative bacteria including Pseudomonas aeruginosa; experiment: In vitro antibacterial activity, overall; format: cell-based; settings: for in vitro antibacterial activity compared with known compounds (in words): b258: Gram-negative bacteria, versus Compounds A, B, D and E, b33: versus compounds A and B; for antibacterial activity (in words): in vitro, Gram-positive and Gram-negative bacteria
# Method: The minimum inhibitory concentrations (MIC, μg/ml) of the following compounds in vitro were measured by the agar dilution method of [Chemotherapy, Vol. 22, No. 16, page 1126 (1974)].
# [5] = Acute toxicity in intravenous injection
Structure (SMILES),ED50 [1],ED50 [2],LD50 at 168 h [3],acute oral toxicity (in words) [3],in vitro antibacterial activity compared with known compounds (in words) [4],antibacterial activity (in words) [4],acute toxicity in intravenous injection compared with Compound 1 (in words) [5]
"CCn1cc(C(=O)O)c(=O)c2cc(F)c(N3CCC(NC)C3)nc21.Cl (stereo not shown) [Compound 2, 1-Ethyl-6-fluoro-1,4-dihydro-7-(3-methylamino-1-pyrrolidinyl)-4-oxo-1,8-naphthyridine-3-carboxylic acid hydrochloride]",42 mg/kg,6.5 mg/kg,> 2000 mg/kg,very weak; also recorded: low oral toxicity,far better in vitro antibacterial activity,very high antibacterial activities,lower acute toxicity in intervenous injection than Compound 1
"CCn1cc(C(=O)O)c(=O)c2cc(F)c(N3CCC(N)C3)nc21.Cl (stereo not shown) [Compound 1, 7-(3-Amino-1-pyrrolidinyl)-1-ethyl-6-fluoro-1,4-dihydro-4-oxo-1,8-naphthyridine-3-carboxylic acid hydrochloride]",21 mg/kg,3.7 mg/kg,> 2000 mg/kg,very weak; also recorded: low oral toxicity,far better in vitro antibacterial activity,very high antibacterial activities,
